Data from patent US4517004A, “Aryl phosphoric triamide and aryl phosphorodiamidate urease and nitrification inhibitors and urease and nitrification inhibited urea and reduced nitrogen based fertilizer compositions” (Allied Corporation, priority 1983, dated 1985).
Like-named read-outs stand apart in the source and are kept apart here.

Columns and labels:
[1] = test system: urease in soil (Cazenovia silt loam; Plano silt loam); experiment: Urease inhibition efficacy test in soil (urea remaining after incubation); assay type: biochemical; details: 40 micrograms compound per gram soil, 42.8 mg urea per 20 g soil, incubated 3 days at 25° C., triplicate; for % Inhibition 40 Micrograms per gram soil, Cazenovia pH 7.2: New York soil (Cazenovia silt loam)
Protocol: Efficacy tests were conducted to evaluate the efficacy of certain representative phosphoric triamide compounds of this invention as urease inhibitors in comparison with the known compound 4-aminophenylphosphoric triamide. The inhibition tests were run in a New York soil (Cazenovia silt loam, pH 7.0), or in Wisconsin soil (Plano silt loam). Evaluations (run in triplicate) consisted of applying 800 micrograms of the test compound in 5 mL of water and 42.8 mg of urea in 1 mL of water to 20 g of air-dry soil in a glass bottle. The bottle was capped with perforated aluminum foil and incubated at 25° C. for three days prior to extraction with 100 mL of a 2M KCl solution containing 0.5 mg of phenylmercuric acetate. The extracts were then analyzed for remaining urea using an autoanalyzer. Percent inhibition was calculated as [formula] where A is urea recovered from unincubated sample (urea added to soil and immediately extracted); B is urea recovered from inhibited sample; and C is urea recovered from the control (uninhibited sample).

[2] = target: T1, jack bean urease (Sigma, Type IX) (Canavalia ensiformis, UniProt P07374); experiment: Efficacy test with commercial purified jack bean urease in homogeneous solution (modified Bremner procedure); assay type: biochemical; details: read-out: % Inhibition 10^-6 M
T1 construct: purchased Sigma Type IX
Protocol: Efficacy tests were also conducted with jack bean urease. The procedure of Bremner (see L. A. Douglas, J. M. Bremner, Soil Biol. Biochem., 3, 859-62 (1970 and references therein) was modified by replacing the soil as the source of urease with commercial purified jack bean urease (Sigma, Type IX). The incubation then proceeds in homogeneous solution. The results are generally parallel to those obtained in the soil test of Example IV and are given in Table II.

soil nitrification = experiment: Nitrification inhibition efficacy test in Cazenovia silt loam soil (nitrate formed from diammonium phosphate); details: Cazenovia silt loam pH 7.3
Protocol: Efficacy tests were conducted to evaluate the efficacy of certain representative phosphoric triamide compounds as nitrification inhibitors. All compounds were evaluated in Cazenovia silt loam soil (pH 7.3). The evaluations consisted of applying either simultaneously (to) or after 14 days (t14) a solution of 6.00 mg (300 μg/g soil) at diammonium phosphate in 1 mL of water to triplicate 20 g samples of air dry soil contained in 250 mL square glass bottles that had been treated with a solution of either 0 or 0.800 mg (40 μg/g soil) of the test compound in 5 mL of water. Each bottle was capped with perforated aluminum foil, incubated for 14 days at 25° C. after diammonium phosphate application, and then extracted with 100 mL of 2M potassium chloride containing 0.5 mg (5 mg/L) of phenylmercuric acetate. Each extract was allowed to settle, and an aliquot was frozen and then analyzed for nitrate using an autoanalyzer. The percent inhibition obtained during the incubation was calculated by the formula: [formula] where A is the nitrate recovered from unincubated soil before diammonium phosphate addition; B is nitrate recovered from uninhibited soil; and C is nitrate recovered from inhibited soil.

[3] = compound at 10^-6 M, purified jack bean urease, homogeneous solution

T1 sequence (P07374 whole entry, looked up): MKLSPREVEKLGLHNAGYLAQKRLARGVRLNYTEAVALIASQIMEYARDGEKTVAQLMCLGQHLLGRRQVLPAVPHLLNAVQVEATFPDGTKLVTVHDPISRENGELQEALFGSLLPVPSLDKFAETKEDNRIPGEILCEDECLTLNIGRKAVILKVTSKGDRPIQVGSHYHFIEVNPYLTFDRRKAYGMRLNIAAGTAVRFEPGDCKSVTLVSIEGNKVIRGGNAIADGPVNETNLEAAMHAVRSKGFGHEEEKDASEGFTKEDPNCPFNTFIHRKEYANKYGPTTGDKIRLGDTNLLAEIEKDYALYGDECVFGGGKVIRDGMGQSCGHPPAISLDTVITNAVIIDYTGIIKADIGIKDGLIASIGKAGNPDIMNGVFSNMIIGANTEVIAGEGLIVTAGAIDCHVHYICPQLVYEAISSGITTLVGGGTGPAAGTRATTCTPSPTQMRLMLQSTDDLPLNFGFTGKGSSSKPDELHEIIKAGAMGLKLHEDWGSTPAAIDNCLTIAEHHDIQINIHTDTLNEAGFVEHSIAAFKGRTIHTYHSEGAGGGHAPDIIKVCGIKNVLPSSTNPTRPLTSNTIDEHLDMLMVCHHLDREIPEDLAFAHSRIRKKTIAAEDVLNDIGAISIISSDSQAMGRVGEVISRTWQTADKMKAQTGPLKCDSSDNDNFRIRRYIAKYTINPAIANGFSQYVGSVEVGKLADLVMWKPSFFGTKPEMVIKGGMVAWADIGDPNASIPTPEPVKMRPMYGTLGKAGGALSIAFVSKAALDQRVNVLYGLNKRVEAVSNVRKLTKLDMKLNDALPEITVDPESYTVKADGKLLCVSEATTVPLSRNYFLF

SMILES | % Inhibition 40 Micrograms per gram soil, Cazenovia pH 7.2 [1] [%] | inhibition at 1 µM [2] [%] | inhibition at 1 µM [2, 3] [%] | % Inhibition 40 Micrograms per gram soil, Wisconsin pH 5.4 ([1]; Wisconsin soil (Plano silt loam), pH 5.4) [%] | % Inhibition at 40 μg per gram of soil, t14 (soil nitrification; diammonium phosphate (300 μg/g soil) applied 14 days after compound (t14), 14 days at 25° C. after application) [%] | % Inhibition at 40 μg per gram of soil, t0 (soil nitrification; diammonium phosphate (300 μg/g soil) applied simultaneously with compound (t0), 14 days at 25° C.) [%]
Nc1ccc(NP(N)(N)=O)cc1 [4-Aminophenylphosphoric triamide, 4-aminophenylphosphoric triamide, reference compound] | 55 | 0 |  |  |  | 
Nc1ccc(OP(N)(N)=O)cc1 [4-Aminophenylphosphorodiamidate, 4-aminophenylphosphorodiamidate] | 91 |  | 80 |  |  | 
CN(c1ccc(O)cc1)P(N)(N)=O [N-(Methyl)-N-(4-hydroxyphenyl) Phosphoric triamide] | 87 |  |  | 33 |  | 
CC(C)(C)c1cc(OP(N)(N)=O)ccc1O [Phosphorodiamidic Acid 3-(1',1'-dimethylethyl)-4-hydroxyphenyl Ester] | 87 |  | 29 |  | 0 | 39
